Measured values as given in patent publication US20240279220A1, “INDOLE COMPOUNDS AND METHODS OF USE” (Genzyme Corporation, priority 2021, published 2024).

Tests used:
NBD1/3D = assay: Aggregation analysis using differential static light scattering (DSLS), NBD1 thermal stability; type: binding, Human; conditions: ΔTagg versus DMSO control; compound at 100 μM
Outline: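 Thermal stabilisation reported as ΔTagg, i.e. aggregation temperature relative to averaged DMSO wells. Tagg came from the inflection of differential static light scattering imaged 25–70 °C while NBD1 (0.2 mg/ml, Tris pH 7.6 buffer containing ATP, MgCl2, DTT, glycerol) was ramped 1 °C/min.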

CFTR = target: T1, CFTR (Homo sapiens, UniProt P13569, DEL508-508); assay: TECC24 recording of CFTR-mediated transepithelial chloride transport in ΔF508 homozygous CF-HBE cells; type: cell-based; conditions: 10 μM test agent, 48 hours incubation, AUC of forskolin-stimulated IEQ divided by vehicle AUC, primary CF-HBE cells
T1 construct: Primary human bronchial epithelial cells from a ΔF508 homozygous CF donor; host or cells: primary human bronchial epithelial cells (CF-HBE), ΔF508 homozygous donor
Outline: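 ΔF508 homozygous primary bronchial epithelia exposed to compound 48 h at 36.5 °C, then transepithelial voltage and resistance recorded in pH 7.4 buffer with benzamil (10 μM), forskolin (10 μM) stimulation and CFTRinh-172 (20 μM) stop. Equivalent Cl⁻ current AUC vs vehicle gives efficacy; EC50 fitted with Hill slope fixed at 1.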

T1 sequence (P13569 with tags, fused parts or gaps DEL508-508): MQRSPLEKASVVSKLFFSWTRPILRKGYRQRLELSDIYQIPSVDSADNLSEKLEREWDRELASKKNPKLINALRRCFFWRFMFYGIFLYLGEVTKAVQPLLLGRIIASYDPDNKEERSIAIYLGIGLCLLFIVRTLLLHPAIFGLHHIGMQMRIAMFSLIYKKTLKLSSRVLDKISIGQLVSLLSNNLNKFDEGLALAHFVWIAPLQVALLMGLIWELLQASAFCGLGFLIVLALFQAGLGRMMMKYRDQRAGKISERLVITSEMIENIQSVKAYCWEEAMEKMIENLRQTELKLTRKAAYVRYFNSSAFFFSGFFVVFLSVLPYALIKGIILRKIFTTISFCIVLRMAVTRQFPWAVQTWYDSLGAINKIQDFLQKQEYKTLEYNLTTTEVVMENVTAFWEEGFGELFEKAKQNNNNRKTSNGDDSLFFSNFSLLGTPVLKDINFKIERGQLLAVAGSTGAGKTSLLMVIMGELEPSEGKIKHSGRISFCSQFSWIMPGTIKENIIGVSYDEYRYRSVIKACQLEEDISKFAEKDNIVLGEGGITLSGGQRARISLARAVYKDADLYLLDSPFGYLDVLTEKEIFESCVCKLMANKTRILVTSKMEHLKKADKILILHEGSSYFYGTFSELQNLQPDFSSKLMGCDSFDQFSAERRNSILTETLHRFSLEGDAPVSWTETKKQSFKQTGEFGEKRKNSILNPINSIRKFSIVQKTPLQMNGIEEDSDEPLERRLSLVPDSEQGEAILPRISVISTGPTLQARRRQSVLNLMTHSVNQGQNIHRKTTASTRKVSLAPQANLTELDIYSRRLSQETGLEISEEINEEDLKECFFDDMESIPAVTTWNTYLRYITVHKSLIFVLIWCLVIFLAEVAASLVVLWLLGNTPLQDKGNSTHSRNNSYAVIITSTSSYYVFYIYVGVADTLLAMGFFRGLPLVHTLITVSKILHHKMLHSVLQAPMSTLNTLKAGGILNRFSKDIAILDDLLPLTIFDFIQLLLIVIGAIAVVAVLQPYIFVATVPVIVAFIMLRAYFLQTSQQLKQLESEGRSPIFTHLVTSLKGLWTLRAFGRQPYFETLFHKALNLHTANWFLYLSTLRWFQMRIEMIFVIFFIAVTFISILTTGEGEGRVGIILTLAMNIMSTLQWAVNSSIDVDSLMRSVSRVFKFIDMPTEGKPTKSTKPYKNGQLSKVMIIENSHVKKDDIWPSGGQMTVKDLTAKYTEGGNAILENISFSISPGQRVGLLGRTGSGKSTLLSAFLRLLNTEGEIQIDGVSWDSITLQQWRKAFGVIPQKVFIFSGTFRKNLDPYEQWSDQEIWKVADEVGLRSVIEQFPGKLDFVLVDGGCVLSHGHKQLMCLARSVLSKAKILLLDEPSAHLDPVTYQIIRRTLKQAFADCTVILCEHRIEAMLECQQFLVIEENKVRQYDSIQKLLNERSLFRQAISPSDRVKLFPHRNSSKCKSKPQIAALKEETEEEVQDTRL

| Structure (SMILES) | TECC24 @ 10 μM over DMSO (AUC fold over DMSO) (CFTR) | DSLS NBD1/3D Human Stability delta-T (° C.) @ 100 (μM) (NBD1/3D) |
| --- | --- | --- |
| CNC(c1cccc(CCC(=O)O)c1)c1cnc(-c2cccc(Oc3c(F)cc4[nH]ccc4c3F)c2)[nH]1 (stereo not shown) [Example 266, 3-(3-((2-(3-((4,6-Difluoro-1H-indol-5-yl)oxy)phenyl)-1H-imidazol-5-yl)(methylamino)methyl)phenyl)propanoic acid] | C (“C” refers to AUC @ 10 uM <= 4) | A (A: T ≥ 10° C.) |
| O=C(O)CCc1cccc(Cc2c[nH]c(-c3cc(Oc4c(F)cc5c(ccn5P(=O)(O)O)c4F)ccc3F)n2)c1F [Example 270, 3-(3-((2-(5-((4,6-Difluoro-1-phosphono-1H-indol-5-yl)oxy)-2-fluorophenyl)-1H-imidazol-4-yl)methyl)-2-fluorophenyl)propanoic acid] | C (“C” refers to AUC @ 10 uM <= 4) | C (C: ≤5° C.) |
| Cc1c(Oc2ccc(F)c(-c3ncc(C(C)(O)c4cccc(CCC(=O)O)n4)[nH]3)c2)c(F)cc2[nH]ccc12 (stereo not shown) [Example 272, 3-(6-(1-(2-(2-fluoro-5-((6-fluoro-4-methyl-1H-indol-5-yl)oxy)phenyl)-1H-imidazol-5-yl)-1-hydroxyethyl)pyridin-2-yl)propanoic acid] | B (“B” refers to AUC @10 uM between 4-12) | B (B: 5-10° C.) |
| CS(=O)(=O)Cc1c(Oc2ccc(F)c(-c3ncc(Cc4cccc(CCC(=O)O)c4F)[nH]3)c2)c(F)cc2[nH]ccc12 [Example 279, 3-(2-Fluoro-3-((2-(2-fluoro-5-((6-fluoro-4-((methylsulfonyl)methyl)-1H-indol-5-yl)oxy)phenyl)-1H-imidazol-5-yl)methyl)phenyl)propanoic acid] | A (“A” refers to AUC @10 uM >= 12) | A (A: T ≥ 10° C.) |
| CC(C)(O)c1nc(-c2cc(Oc3c(F)cc4[nH]ccc4c3F)ccc2F)[nH]c1Cc1cccc(CCC(=O)O)c1F [Example 280, 3-(3-((2-(5-((4,6-Difluoro-1H-indol-5-yl)oxy)-2-fluorophenyl)-4-(2-hydroxypropan-2-yl)-1H-imidazol-5-yl)methyl)-2-fluorophenyl)propanoic acid] | A (“A” refers to AUC @10 uM >= 12) | B (B: 5-10° C.) |

Continued, in another order:

| TECC24 @ 10 μM over DMSO (AUC fold over DMSO) (CFTR) | Structure (SMILES) | DSLS NBD1/3D Human Stability delta-T (° C.) @ 100 (μM) (NBD1/3D) |
| --- | --- | --- |
| C (“C” refers to AUC @ 10 uM <= 4) | O=C(O)CCc1cccc(C(O)(c2cnc(-c3cc(Oc4c(F)cc5[nH]ccc5c4F)ccc3F)[nH]2)C(F)(F)F)c1 (stereo not shown) [Example 273, 3-(3-(1-(2-(5-((4,6-difluoro-1H-indol-5-yl)oxy)-2-fluorophenyl)-1H-imidazol-5-yl)-2,2,2-trifluoro-1-hydroxyethyl)phenyl)propanoic acid] | B (B: 5-10° C.) |
| C (“C” refers to AUC @ 10 uM <= 4) | CC(c1cccc(CCC(=O)O)c1)(c1cnc(-c2cc(Oc3c(F)cc4[nH]ccc4c3S(C)(=O)=O)ccc2F)[nH]1)C(F)F (stereo not shown) [Example 276, 3-(3-(1,1-Difluoro-2-(2-(2-fluoro-5-((6-fluoro-4-(methylsulfonyl)-1H-indol-5-yl)oxy)phenyl)-1H-imidazol-5-yl)propan-2-yl)phenyl)propanoic acid] | A (A: T ≥ 10° C.) |
| A (“A” refers to AUC @10 uM >= 12) | CC(C)(C)C(c1cccc(CCC(=O)O)c1)c1cnc(-c2cc(Oc3c(F)cc4[nH]ccc4c3F)ccc2F)[nH]1 (stereo not shown) [Example 277, 3-(3-(1-(2-(5-((4,6-difluoro-1H-indol-5-yl)oxy)-2-fluorophenyl)-1H-imidazol-5-yl)-2,2-dimethylpropyl)phenyl)propanoic acid] | B (B: 5-10° C.) |
